Results as given in ChEMBL document CHEMBL3045448, “Enantioselective effects of optically active alpha-methylbenzyl-s-triazine on the root growth of rice and Echinochloa plants and their herbicidal activity” (Biosci Biotechnol Biochem, 2002).
Calls of active or inactive are those of the source. The calls are words filed in the database; no cut-off is given here.

Experiments:
[1] = tested on: Echinochloa crus-galli var. formosensis; experiment: Phytotoxicity in germinated seedlings of Echinochloa crus-galli var. formosensis (barnyard millet) assessed as root growth inhibition at 30 uM after 3 to 4 days; assay type: organism-based; details: in vivo
Oryza sativa = experiment: Phytotoxicity in germinated seedlings of Oryza sativa (rice) assessed as root growth inhibition at 30 uM after 3 to 4 days; assay type: organism-based; details: in vivo
Echinochloa oryzicola [2] = experiment: Herbicidal activity against sprouting stage of Echinochloa oryzicola seedlings assessed as growth inhibition after 3 weeks by paddy pot test under green house conditions; assay type: functional, organism-based
Echinochloa oryzicola [3] = experiment: Herbicidal activity against Echinochloa oryzicola seedlings assessed as appearance of leaf burn symptom after 3 weeks by paddy pot test under green house conditions; assay type: functional, organism-based
Echinochloa oryzicola [4] = experiment: Herbicidal activity against Echinochloa oryzicola seedlings measured per 10 acres after 3 weeks by paddy pot test under green house conditions; assay type: functional

For `C[C@@H](Nc1nc(Cl)nc(NC(C)(C)C)n1)c1ccccc1`, the “growth inhibition (GI)” value [1] was “Toxic”.

In the case of `CCCN(C)c1nc(Cl)nc(N[C@H](C)c2ccccc2)n1`, the “growth inhibition (GI)” value (Oryza sativa) is reported as “Toxic”.

With `CCN(CC)c1nc(Cl)nc(N[C@@H](C)c2ccccc2)n1` the “growth inhibition (GI)” value (Echinochloa oryzicola [2]) was “Active”.

`CCCN(CC)c1nc(Cl)nc(N[C@H](C)c2ccccc2)n1` was tested, and the “growth inhibition (GI)” value [1] was “Toxic”.

For `CCNc1nc(Cl)nc(N[C@@H](C)c2ccccc2)n1`, the Activity (Echinochloa oryzicola [3]) was “Active” and the “growth inhibition (GI)” value (Oryza sativa) was “Toxic”.

With `CCCN(CCC)c1nc(Cl)nc(N[C@H](C)c2ccccc2)n1` the “growth inhibition (GI)” value [1] was “Toxic” and the “growth inhibition (GI)” value (Oryza sativa) was “Toxic”.

For `CCNc1nc(Cl)nc(NC(C)c2ccccc2)n1` (configuration not stated), the Activity (Echinochloa oryzicola [3]) was “Active” and the “growth inhibition (GI)” value (Echinochloa oryzicola [2]) was “Active”.

For `CCC(CC)Nc1nc(Cl)nc(N[C@H](C)c2ccccc2)n1`, the “growth inhibition (GI)” value [1] was “Toxic” and the “growth inhibition (GI)” value (Oryza sativa) was “Toxic”.

`CCNc1nc(Cl)nc(NC(C)C)n1` was tested, and the Activity (Echinochloa oryzicola [3]) was “Active”.

In the case of `CCNc1nc(Cl)nc(N[C@H](C)c2ccccc2)n1`, the Activity (Echinochloa oryzicola [3]) is reported as “Active” and the “growth inhibition (GI)” value (Echinochloa oryzicola [2]) is reported as “Active”.

In the case of `CCCNc1nc(Cl)nc(N[C@H](C)c2ccccc2)n1`, the “growth inhibition (GI)” value (Oryza sativa) is reported as “Toxic”.

`CCN(CC)c1nc(Cl)nc(N[C@H](C)c2ccccc2)n1` was tested, and the Activity (Echinochloa oryzicola [4]) was 250 g and the “growth inhibition (GI)” value (Echinochloa oryzicola [2]) was “Active”.

With `CC[C@H](C)Nc1nc(Cl)nc(N[C@H](C)c2ccccc2)n1` the “growth inhibition (GI)” value (Oryza sativa) was “Toxic”.

With `CCCCNc1nc(Cl)nc(N[C@H](C)c2ccccc2)n1` the “growth inhibition (GI)” value (Oryza sativa) was “Toxic”.

In the case of `CNc1nc(Cl)nc(N[C@@H](C)c2ccccc2)n1`, the “growth inhibition (GI)” value (Oryza sativa) is reported as “Toxic”.

`CCN(CC)c1nc(Cl)nc(NC(C)c2ccccc2)n1` (configuration not stated) was tested, and the “growth inhibition (GI)” value (Echinochloa oryzicola [2]) was “Active”.
